The NIST ThermoML archive (doi:10.1021/acs.jced.7b00788)
Numbers after ± are expanded uncertainties.

Tests used:
[1] = 100 kPa, Liquid; for viscosity: Concentric cylinders viscometry; for mass density: Vibrating tube method
[2] = xn = mol fraction of the nth substance listed; details: 100 kPa, Liquid, x1 = 1; for viscosity: Concentric cylinders viscometry; for mass density: Vibrating tube method

CCOP(=O)([O-])OCC.CCn1cc[n+](C)c1 [1-ethyl-3-methylimidazolium diethyl phosphate]
[1]
Details | mass density [kg/m3] | viscosity [mPa·s]
293.15 K | 1151.2 ± 1.2 | 540 ± 30
303.15 K | 1144.2 ± 1.2 | 274 ± 15
313.15 K | 1137.4 ± 1.2 | 154 ± 8
323.15 K | 1130.7 ± 1.2 | 94 ± 4.4
333.15 K | 1124.1 ± 1.2 | 61.2 ± 2.8
343.15 K | 1117.5 ± 1.2 | 42.1 ± 1.9
353.15 K | 1111 ± 1.1 | 30.2 ± 1.3
363.15 K | 1104.5 ± 1.1 | 22.5 ± 1
373.15 K | 1098.2 ± 1.1 | 17.3 ± 0.7

C[S+](C)[O-] [dimethyl sulfoxide]
[1]
Details | mass density [kg/m3] | viscosity [mPa·s]
293.15 K | 1101.2 ± 0.7 | 2.31 ± 0.09
303.15 K | 1091.2 ± 0.7 | 1.89 ± 0.08
313.15 K | 1081.1 ± 0.7 | 1.57 ± 0.06
323.15 K | 1071.1 ± 0.7 | 1.33 ± 0.05
333.15 K | 1061.2 ± 0.7 | 1.15 ± 0.05
343.15 K | 1051.3 ± 0.7 | 1.01 ± 0.04
353.15 K | 1041.1 ± 0.7 | 0.893 ± 0.037
363.15 K | 1031.3 ± 0.7 | 0.799 ± 0.033
373.15 K | 1021.4 ± 0.7 | 0.721 ± 0.03

O [water]
[1]
Details | mass density [kg/m3] | viscosity [mPa·s]
293.15 K | 1000.1 ± 0.5 | 1 ± 0.04
303.15 K | 998 ± 0.5 | 0.805 ± 0.034
313.15 K | 994.3 ± 0.5 | 0.651 ± 0.027
323.15 K | – | 0.544 ± 0.023
333.15 K | 985.2 ± 0.6 | 0.472 ± 0.02
343.15 K | 979.6 ± 0.6 | 0.417 ± 0.018
353.15 K | 973.3 ± 0.6 | 0.342 ± 0.015

O [water] + CCOP(=O)([O-])OCC.CCn1cc[n+](C)c1
[2]
Details | mass density [kg/m3] | viscosity [mPa·s]
293.15 K | 1000.1 ± 0.5 | 1 ± 0.04
303.15 K | 998 ± 0.5 | 0.805 ± 0.034
313.15 K | 994.3 ± 0.5 | 0.651 ± 0.027
323.15 K | – | 0.544 ± 0.023
333.15 K | 985.2 ± 0.6 | 0.472 ± 0.02
343.15 K | 979.6 ± 0.6 | 0.417 ± 0.018
353.15 K | 973.3 ± 0.6 | 0.342 ± 0.015
